Data reported in EP0815072B1, “RADIOGRAPHIC CONTRASTING AGENT FOR COMPUTERISED TOMOGRAPHY AND UROGRAPHY” (SCHERING AKTIENGESELLSCHAFT, priority 1995, dated 1996).

Columns and labels:
[1] = Butanol/water (buffer pH 7) partition coefficient; format: physicochemical; conditions: for Verteilungskoeffizient: Butanol/Wasser (Puffer pH 7), n = 4, Mittelwert ± Standardabweichung
Source text: Während Osmolalität, Viskosität und Jodgehalt den strukturisomeren Verbindungen lopamidol und lomeprol sehr ähnlich sind, zeigt sich eine überraschend erhöhte Hydrophilie der erfindungsgemäßen Verbindungen (Tab. 1). Tab.1:
Die Hydrophilie wird nicht wie bei der mit lohexol bezeichneten Verbindung durch die Einführung einer zusätzlichen Hydroxyalkylfunktion erreicht (die den Jodgehalt vermindert und Viskosität und Osmolalität erhöht), sondern ist die überraschende Folge einer neuen sterischen Anordnung der Substituenten an dem jodierten Aromaten.

[2] = Lethal dose after intravenous injection in rats; format: in vivo, Ratten; conditions: rat, in vivo, iv; all three doses pooled, i.v., Ratten; read-out: gestorbene Tiere, alle Dosierungen (%)
Source text: (§1) Die Hydrophilie wird als eine wichtige Voraussetzung für eine Verminderung der bei intravenöser Injektion beobachteten nicht osmolalitätsbedingten Nebenwirkungen angesehen (Dawson P., Clauß W.: Contrast Media in Practice, Springer Verlag Berlin Heidelberg 1993, Seite 11-12). Dazu gehören vor allem Übelkeit und Erbrechen, sowie allergieartige Reaktionen bis hin zum schweren anaphylaktoiden Schock. Andere Testergebnisse, die eine besonders gute Allgemeinverträglichkeit anzeigen, werden in biochemischen, biologischen und toxikologischen (Tab. 2) Untersuchungen gewonnen.

Ratten = assay: Lethal dose after intravenous injection in rats; format: in vivo; conditions: i.v., Ratten (90-110 g), 300 mg Jod/ml, 2 ml/min
Source text: as §1

SMILES: CN(CC(O)CO)C(=O)c1c(I)c(NC(=O)CO)c(I)c(C(=O)NCC(O)CO)c1I (stereo not shown) [Beispiel 1, 5-Hydroxyacetylamino-2,4,6-triiod-isophthalsäure-[(2,3-dihydroxy-N-methyl-propyl)-(2,3-dihydroxypropyl)]-diamid]
- Verteilungskoeffizient [1]: 0.069 ± 0.011
- Hydrophilie ([1]; comparison with structurally comparable compounds, from the partition coefficient): am stärksten hydrophil
- mortality [2]: 33%
- Zahl der gestorbenen Tiere / Gesamtzahl der Tiere (Ratten; Dosis 1: 12 g J/kg): 0/4
- Zahl der gestorbenen Tiere / Gesamtzahl der Tiere (Ratten; Dosis 2: 15 g J/kg): 2/4
- Zahl der gestorbenen Tiere / Gesamtzahl der Tiere (Ratten; Dosis 3: 18 g J/kg): 2/4

SMILES: C[C@H](O)C(=O)Nc1c(I)c(C(=O)NC(CO)CO)c(I)c(C(=O)NC(CO)CO)c1I [lopamidol]
- Verteilungskoeffizient [1]: 0.089 ± 0.014
- mortality [2]: 58%
- Zahl der gestorbenen Tiere / Gesamtzahl der Tiere (Ratten; Dosis 1: 12 g J/kg): 2/4
- Zahl der gestorbenen Tiere / Gesamtzahl der Tiere (Ratten; Dosis 2: 15 g J/kg): 1/4
- Zahl der gestorbenen Tiere / Gesamtzahl der Tiere (Ratten; Dosis 3: 18 g J/kg): 4/4

SMILES: CC(=O)N(CC(O)CO)c1c(I)c(C(=O)NCC(O)CO)c(I)c(C(=O)NCC(O)CO)c1I (stereo not shown) [lohexol]
- Verteilungskoeffizient [1]: 0.082 ± 0.005

SMILES: COCC(=O)Nc1c(I)c(C(=O)NCC(O)CO)c(I)c(C(=O)N(C)CC(O)CO)c1I (stereo not shown) [lopromid]
- Verteilungskoeffizient [1]: 0.149 ± 0.011
- mortality [2]: 67%
- Zahl der gestorbenen Tiere / Gesamtzahl der Tiere (Ratten; Dosis 1: 12 g J/kg): 1/4
- Zahl der gestorbenen Tiere / Gesamtzahl der Tiere (Ratten; Dosis 2: 15 g J/kg): 3/4
- Zahl der gestorbenen Tiere / Gesamtzahl der Tiere (Ratten; Dosis 3: 18 g J/kg): 4/4

SMILES: CN(C(=O)CO)c1c(I)c(C(=O)NCC(O)CO)c(I)c(C(=O)NCC(O)CO)c1I (stereo not shown) [lomeprol]
- Verteilungskoeffizient [1]: 0.105 ± 0.006
- mortality [2]: 89%
- Zahl der gestorbenen Tiere / Gesamtzahl der Tiere (Ratten; Dosis 1: 12 g J/kg): 2/3
- Zahl der gestorbenen Tiere / Gesamtzahl der Tiere (Ratten; Dosis 2: 15 g J/kg): 3/3
- Zahl der gestorbenen Tiere / Gesamtzahl der Tiere (Ratten; Dosis 3: 18 g J/kg): 3/3
